We go through one molecule from ChEMBL document CHEMBL3994623, “The synthesis and antistaphylococcal activity of 9, 13-disubstituted berberine derivatives” (Eur J Med Chem, 2017).

The test system of data set [1] is Staphylococcus aureus. In words: Potency index, ratio of totarol MIC to test compound MIC for linezolid-resistant Staphylococcus aureus NRS-271 containing phage type E-MRSA. It counts as functional.
Data set [2] is described as follows: Cytotoxicity against HAF assessed as decrease in cell viability after 24 hrs by MTS assay. It counts as cell-based. Conditions: Homo sapiens. On the technique in general: Formazan colour is commonly taken as a measure of viable cells.
In data set [3] the test system is Staphylococcus aureus. In words: Antistaphylococcal activity against linezolid-resistant Staphylococcus aureus NRS-271 containing phage type E-MRSA after 18 hrs by two fold serial dilution method. The class given is functional. Conditions: NRS-271, 18 h.
The subject of data set [4] is Staphylococcus aureus. Nature of the data set: Potency index, ratio of totarol MIC to test compound MIC for oxacillin/tetracycline-resistant Staphylococcus aureus NRS-100. It counts as functional.
Data set [5] relates to Staphylococcus aureus. Nature of the data set: Potency index, ratio of totarol MIC to test compound MIC for gentamicin-resistant Staphylococcus aureus NRS-108.
The nature of data set [6]: Cytotoxicity against HAF assessed as effect on cell morphology at […] ug/ml after 24 hrs by hematoxylin-eosin staining-based contrast microscopic method. Particulars: human.
Data set [7] concerns Staphylococcus aureus. In words: Antistaphylococcal activity against gentamicin-resistant Staphylococcus aureus NRS-108 after 18 hrs by two fold serial dilution method. The class given is functional. Particulars: NRS-108, 18 h.
Data set [8] relates to Staphylococcus aureus. In words: Potency index, ratio of totarol MIC to test compound MIC for erythromycin-resistant Staphylococcus aureus NRS-70. The class given is functional.
The test system of data set [9] is Staphylococcus aureus. In words: Antistaphylococcal activity against Staphylococcus aureus Newman after 18 hrs by two fold serial dilution method. It counts as functional.
Data set [10] has as its system Staphylococcus aureus. In words: Antistaphylococcal activity against aminoglycosides/tetracycline-resistant Staphylococcus aureus NRS-1 after 18 hrs by two fold serial dilution method. It counts as functional. Particulars: NRS-1, 18 h.
Data set [11] deals with Staphylococcus aureus. Nature of the data set: Potency index, ratio of totarol MIC to test compound MIC for aminoglycosides/tetracycline-resistant Staphylococcus aureus NRS-1. The class given is functional.
Data set [12] relates to Staphylococcus aureus. Nature of the data set: Antistaphylococcal activity against oxacillin/tetracycline-resistant Staphylococcus aureus NRS-100 after 18 hrs by two fold serial dilution method. Particulars: NRS-100, 18 h. It counts as functional.
The test system of data set [13] is Staphylococcus aureus. In words: Antistaphylococcal activity against erythromycin-resistant Staphylococcus aureus NRS-70 after 18 hrs by two fold serial dilution method. The class given is functional. Particulars: NRS-70, 18 h.
Data set [14] in a line: Cytotoxicity against HAF assessed as effect on cell morphology at 12.5 ug/ml after 24 hrs by hematoxylin-eosin staining-based contrast microscopic method. Particulars: human.

The term IC50 denotes the point on the concentration scale where inhibition reaches its midpoint.

As to `CCCCCNc1c(OC)ccc2c(Cc3ccc(C(F)(F)F)cc3)c3[n+](cc12)CCc1cc2c(cc1-3)OCO2.[Br-]`, the Ratio in the data set on Staphylococcus aureus [1], in the data set with Staphylococcus aureus [4], in the data set with Staphylococcus aureus [5], in the data set with Staphylococcus aureus [8] and in the data set with Staphylococcus aureus [11] was 1 - 4 throughout. Also, the IC50 in data set [2] was found to be 11.4 µg/mL. In addition, the MIC was found to be 1.56 µg/mL in the data set with Staphylococcus aureus [3]; 1.56 µg/mL in the data set with Staphylococcus aureus [7]; 1.25 µg/mL in the data set on Staphylococcus aureus [9]; 1.56 µg/mL in the data set on Staphylococcus aureus [10]; 1.56 µg/mL against Staphylococcus aureus [12]; 1.56 µg/mL in the data set on Staphylococcus aureus [13]. Also, the Activity entry in [6] was “Non-Toxic”; in data set [14], “Toxic”.
